# Measured values reported in patent US20070026090A1, “Treatment and prevention of inflammatory disease and mitochondrial dysfunction with high dose selenium” (priority 2003, published 2007).
# “Also recorded” adds a separate entry of the source.
# Columns and labels:
# [1] = system: lipid peroxidation (MDA); experiment: Lipid peroxidation: MDA levels in colon tissue (HPLC); format: in vivo, rat; details: colitis-induced and uninduced rats, selenium supplemented group; data not presented
# Method: Lipid peroxidation—MDA levels: MDA levels in the colon tissue were determined as an indicator of lipid peroxidation using HPLC methodology (Valacchi et al., 2000). Briefly, tissue sections (100 mg) were homogenized in 1% Triton X 100 PBS. The suspended tissue was diluted 1:1 with 1% SDS solution and incubated with 250 ul TBA reagent (0.375 g TBA/100 ml) and 200 ul phosphoric acid (1.22 M) for 30 min at 100° C. Methanol ([…]) was added for protein precipitation and NaOH (20 ml, 1N) added for pH neutralization. After centrifugation, 100 ul clear supernatant was injected into a HPLC system, using a C185 m, 250 mm^a 4.6 mm internal diameter, reversed phase column (Alltech, Deerfield, Ill., USA). The mobile phase consisted of 60% methanol and 40% 50 mM NaH2PO4, pH 5.5. The flow rate was 0.9 ml/min and the detector was set to 532 nm. HPLC colarray ESA was used.
# [2] = system: GAPDH; experiment: GAPDH housekeeping control transcript (RTPCR); format: cell-based, murine
# Method: Reverse transcriptase-PCR (RTPCR): Total RNA was prepared and isolated by the Tri-Reagent method according to the manufacturer's protocol (Sigma, St. Louis Mo., USA). Total RNA (1 μg) was converted into cDNA using Reverse-iT first strand synthesis kit (Abgene, UK). Amplification of MnSOD and UCP2 sequences was performed by incubating 10 ng equivalents of DNA with the following oligonucleotide primers:
# The sequence of glyceraldehyde-3-phosphate dehydrogenase (GAPDH) was amplified as a control using the following primers: Left (sense) 5′-[…]-3′(SEQ ID NO: 9) corresponding to nucleotides 364 to 382 of mouse mRNA (GenBank Accession No. XM 195823.21).
# Right (antisense) 5′[…]-3′ (SEQ ID NO: 10) corresponding to nucleotides 683 to 703 of mouse mRNA (GenBank Accession No. XM 195823.21). The expected PCR product was 339 bp. Actual PCR product was approximately 340 bp, measured on 1.25% agarose gel in TAE containing ethidium bromide.
# PCR was performed with 28 cycles (25 cycles for GAPDH) of 30 seconds at 96° C., 30 seconds at 58° C. and 1 min at 72° C. RTPCR products were analyzed on 1.3% (w/v) agarose gels.
# [3] = system: mitochondrial respiration in colon tissue; experiment: Mitochondrial respiration (oxygen consumption) in colon tissue of supplemented rats; format: in vivo, rat
# Method: Mitochondrial respiration activity in colon tissue: Mitochondrial respiration was measured by direct assessment of oxygen consumption of the tissue. Briefly, colons were removed, chilled on ice, and washed extensively with cold PBS. Colon tissue samples (5-10 mm in width, 100 mg) were incubated at ambient temperature in PBS supplemented with 5 mM glucose. Oxygen consumption was measured polarographically using a computerized Clark-type oxygen electrode. The addition of the Electron Transport Chain (complex 1) inhibitor rotenone was used to determine whether the majority of oxygen consumption measured in the colon samples was mitochondrial respiration-dependent.
# [4] = system: cytochrome c mRNA; experiment: Cytochrome c mRNA in colon tissue (RT-PCR); format: in vivo, rat; details: 24 h after TNBS; supplemented (FIG. 7A lane 4)
# [5] = system: Sp1; experiment: Sp1 binding activity of nuclear extracts of treated macrophages (EMSA); format: cell-based, murine
# Method: (§1) Cell culture: Murine J774.2 macrophages (kindly provided by Prof. Dov Zipori from the Weizmann Institute of Science) were grown in RPMI medium supplemented with 10% (w/v) fetal calf serum, penicillin (100 U/ml), streptomycin (100 μg/ml) and 1× glutamine at 37° C. in a humidified atmosphere consisting of 95% air and 5% CO2. Experiments were performed on cells at 60% confluence.
# (§2) Nuclear extracts: Nuclear Extracts were prepared using a slight modification of the method of Dignam et al (23). Treated cells were washed with cold PBS, scraped and centrifuged. Hypotonic buffer (1 ml, 20 mM HEPES pH 7.0, 10 mM KCl, 1 mM mGCl2, 0.5 mM DTT, 0.1% Triton X-100, 20% glycerol, 2 mM PMSP, 1 mg/ml Aprotonin and Leupeptin) was added to the cell pellets, the pellets were disrupted by pipetting, and centrifuged 3000 RPM for 5 min. The pellets were re-suspended in 100 μl cold extraction buffer (20 mM HEPES pH 7.0, 10 mM KCl, 1 mM mGCl2, 0.5 mM DTT, 0.1% Triton X-100, 20% glycerol, 2 mM PMSF, 1 mg/ml Aprotonin and Leupeptin, 420 mM NaCl). The samples were rotated for 20 min at 4° C., centrifuged 15,000 RPM for 10 min, and supernatants collected. Protein content was measured using Bradford reagent. Samples were stored frozen at minus 70° C.
# (§3) Electromobility shift assay (EMSA)—Gel shift assays were performed according to the gel shift assay protocol from Promega Corp. (San Luis Obispo, Calif.). A 22-mer double-stranded NF-κB consensus oligonucleotide 5′-[…]-3′ (SEQ ID NO:3), and Sp1 consensus oligonucleotide 5′-[…]-3(SEQ ID NO:4), were labeled with 32P. For each reaction, 2 μg of nuclear extract were incubated with 2 μl of 5× binding buffer for 5 min., 1 μl of the ^32P-labeled oligonucleotide was added at room temperature for 20 min., the samples were prepared by adding 1 μl of dye free loading buffer, and separated using 6% non-denaturing acrylamide gel electrophoresis. The gel was dried and exposed to a phosphoimaging screen for 18 hours and then visualized with a phosphoimager. For specificity, 1 μl of unlabeled consensus oligonucleotide was used to compete with the labeled probe.
# [6] = system: NF-κB; experiment: NF-κB binding activity of nuclear extracts of treated macrophages (EMSA); format: cell-based, murine
# Method: as §1, §2, §3
smiles,measurement,setting,value
[Se] [selenium],colon tissue lipid peroxidation (MDA content),[1],no changes
same,"GADPH expression, activated macrophages",[2]; LPS + INFγ activated (FIG. 11),No effect
same,GADPH RNA levels,"[2]; resting J774.2 (FIGS. 9, 10)",No effect
same,hapten-induced impairment in oxygen consumption,"[3]; 24 h after TNBS, supplemented vs unsupplemented (FIG. 5 C vs D), unsupplemented approximately 70% impairment",prevented a significant proportion
same,oxygen consumption in healthy colon tissue,"[3]; healthy rats, supplemented vs unsupplemented (FIG. 5 B vs A)",little effect; also recorded: did not enhance
same,effect of TNBS-induced colitis on cytochrome c mRNA levels,[4],completely prevented
same,"lowest concentration with dramatic effect on Sp-1 binding, activated macrophages","[5]; 72 hours, then 6 hours LPS + INFγ, range 0.5-5 μM (FIG. 13A lower panel)",5 µM
same,"lowest concentration with dramatic effect on Sp-1 binding, resting macrophages","[5]; 72 hours, unactivated (FIG. 13A upper panel)",5 µM
same,"binding of Sp-1, activated macrophages",[5]; concentration-dependent (FIG. 13A),dramatically reduced
same,"NF-κB translocation, resting unactivated macrophages","[6]; 0.5-5 μM, 72 hours (FIG. 12A)",no effect
same,"lowest concentration with dramatic effect on NF-κB translocation, activated macrophages","[6]; 72 hours, then 6 hours LPS + INFγ, range 0.5-5 μM (FIG. 12A)",0.5 µM
same,"nuclear import of NF-κB, activated macrophages",[6]; concentration-dependent (FIG. 12A),dramatically reduced
